Measured values from paper PMC6321601 (Molecules, 2018).

Assays:
caspase 3 = experiment: Western blot assay, caspase 3; format: cell-based, human; conditions: HepG-2, 24 h
Description: (§1) HepG-2 cells were treated with compound 10b for 24 h, and the cell lysates were collected. Then, the total protein was separated by SDS-PAGE and transferred to PVDF membranes. The membranes were incubated with primary antibodies (1:1000) at 4 °C overnight. After being washed with PBST (PBS + 0.5% Tween 20) 5 times, the membranes were incubated with HRP-conjugated secondary antibodies (1:5000 dilution) for 2 h at room temperature. The membranes were then washed with PBST 5 times and the protein blots were detected by ECL chemiluminescence.

STAT3 = experiment: Western blot assay, STAT3; format: cell-based, human; conditions: HepG-2, 24 h, different concentrations
Description: as §1

Bax = experiment: Western blot assay, Bax; format: cell-based, human; conditions: HepG-2, 24 h
Description: as §1

Bim = experiment: Western blot assay, Bim; format: cell-based, human; conditions: HepG-2, 24 h
Description: as §1

HepG-2 cells = experiment: Cell apoptosis assay, Annexin-V/PI flow cytometry; format: cell-based, human; conditions: HepG-2, 48 h, 0, 1 and 2 µM
Description: HepG-2 cells were seeded into a 24-well plate with 5 × 10^4/well/1 mL. After 12 h, cells were treated with compound 10b at different concentrations for 48 h. The cells were collected, washed with cold PBS, and stained with Annexin-V/PI according to the manufacturer’s instructions. Then, the cells were analyzed with flow cytometry.

[1] = tested on: HepG-2 human hepatocellular carcinoma cells; experiment: MTT assay, proliferation of HepG-2 cells; format: cell-based; conditions: Homo sapiens, HepG2, 72 h incubation, mean of three independent experiments
In short: (§2)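 HepG-2 and normal L-O2 liver cells in DMEM with 10% FBS were seeded and, after 12 h, exposed to graded compound concentrations for 72 h at 37 °C. Viability was read by MTT (4 h, formazan dissolved in DMSO, OD 570 nm), and IC50 values were calculated from these readings.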

Bcl-2 = experiment: Western blot assay, Bcl-2; format: cell-based, human; conditions: HepG-2, 24 h
Description: as §1

[2] = tested on: L-O2 human normal liver cells; experiment: MTT assay, toxicity against L-O2 normal cells; format: cell-based; conditions: Homo sapiens, 72 h incubation, mean of three independent experiments
In short: as §2

Balb/C mice = experiment: In vivo acute toxicity assay; conditions: intravenous injection; for percentage of death: three mice
Description: To evaluate the toxicity of compound 10b, an acute toxicity assay was performed using Balb/C mice.
Five-week-old Balb/C mice were purchased from the Chinese Academy of Sciences and maintained under specific pathogen free (SPF) conditions. […] The control group mice were treated with vehicle buffer intravenously. […] The compound 10b group mice were treated with compound 10b at doses of 2 mg/kg, 5 mg/kg, 10 mg/kg, 20 mg/kg, and 50 mg/kg respectively (three mice each dose). The clinical symptoms, deaths, and body weight were observed and recorded.

P-STAT3 = experiment: Western blot assay, P-STAT3; format: cell-based, human; conditions: HepG-2, 24 h, dose-dependent
Description: as §1

With `CC(=O)OC(C)(C)/C=C/C(=O)[C@](C)(O)C1[C@H](OC(=O)CCC(=O)OCCCOc2no[n+]([O-])c2S(=O)(=O)c2ccccc2)C[C@@]2(C)C3CC=C4C(CC(O)C(=O)C4(C)C)[C@]3(C)C(=O)C[C@]12C` (stereo partly drawn) [Compound 10b, 4-(3-((4-(((9R,13R,14S,16R)-17-((R,E)-6-Acetoxy-2-hydroxy-6-methyl-3-oxohept-4-en-2-yl)-2-hydroxy-4,4,9,13,14-pentamethyl-3,11-dioxo-2,3,4,7,8,9,10,11,12,13,14,15,16,17-tetradecahydro-1H-cyclopenta[a]phenanthren-16-yl)oxy)-4-oxobutanoyl)oxy)propoxy)-3-(phenylsulfonyl)-1,2,5-oxadiazole 2-oxide] the “level of caspase 3” value (caspase 3) was “decreased”, the “total expression of STAT3” value (STAT3) was “remained little changed” and the “expression of Bax” value (Bax) was “strongly increased”. For the same molecule, the “expression of Bim” value (Bim) was “strongly increased”, the “induction of cell apoptosis” value (HepG-2 cells) was “significantly induced cell apoptosis in a dose-dependent manner” and the IC50 [1] was 0.63 ± 0.29 µM. The “expression of Bcl-2” value (Bcl-2) was “substantially diminished”, the IC50 [2] was 2.97 ± 0.23 µM and the percentage of death (Balb/C mice; 2 mg/kg) was 0/3. For the same molecule, the percentage of death (Balb/C mice; 5 mg/kg) was 0/3, the percentage of death (Balb/C mice; 10 mg/kg) was 0/3 and the percentage of death (Balb/C mice; 20 mg/kg) was 0/3. The percentage of death (Balb/C mice; 50 mg/kg) was 1/3, the body weight change (Balb/C mice; different doses (2-50 mg/kg), compared to the vehicle group) was “did not change” and the “level of P-STAT3” value (P-STAT3) was “clearly inhibited”.
